Measured values taken from patent publication US20130225641A1, “ANTICANCER COMPOUNDS AND PREPARATION METHODS THEREOF” (priority 2010, published 2013).

Key:
Assay type in all cases: in vivo, nude mice (nu/nu)
[1] = test system: human lung cancer cells (NCI-H23); assay: Transplantation model of human lung cancer (NCI-H23) in nude mice; conditions: NCI-H23 subcutaneous in nude mice; oral daily 5 days/week, 3 weeks; ZTP 30 mg/kg, ZTQ 60 mg/kg; lower = stronger
Experimental: (§1) T-cell deficient nude mice (nu/nu) of 6 weeks old were purchased from Charles River Laboratory, and housed and treated in a sterile environment following Institutional Animal Care & Use Committee Program. 48 mice were respectively subcutaneously inoculated on ribbed belly with 5×10^6 human liver cancer cells (HepG3B), human lung caner cells (NCI-H23), and human colon cancer cells (HCT-116) suspended in 0.2 ml HBSS/matrigel (50:50, V/V). When the tumor grew to have an average diameter of 7-8 mm and a volume of about 100-200 mm^3, 24 mice were picked up, and assigned to treatment groups (16 animals/2 groups), and a control group (8 animals). The 2 treatment groups were administered with the compounds ZTP and ZTQ dissolved in 15% Captsol respectively at a dose of 30 mg/kg and 60 mg/kg, and the control group only received an excipient (15% Captsol).
(§2) The same number of mice of each type was assigned to the control group and the treatment groups with the compounds ZTP and ZTQ respectively.
(§3) The dose schedule of the test compounds in the tumor transplanted nude mice was as follows: the compounds ZTP and ZTQ dissolved in 15% Captsol were daily orally administered as a 200 μl solution containing 0.75 mg of ZTP and 1.5 mg of ZTQ for 5 days/week over 3 consecutive weeks, followed by one-week break; and the control group was only administered with 200 μl of the placebo (15% Captsol) for 3 weeks, followed by 1 week of break. The two groups of animals were housed separately, and allowed to free access to food.
(§4) Evaluation of antitumor effect: the tumor size was measured every 3 or 4 days. The tumor volume was calculated using the equation below: […], in which a denotes the width (the shorter diameter), and b denotes the length (the longer diameter). Relative tumor volume (RTV) of each tumor refers to the ratio of the volume at a specified time to that at the beginning of the treatment. The average RTV for each treatment group was calculated. The antitumor activity was determined by calculating the tumor growth inhibition using a formula below. […]

[2] = Side effects in tumor transplanted nude mice; conditions: during treatment
Experimental: as §1, §3

[3] = test system: human colon cancer cells (HCT-116); assay: Transplantation model of human colon cancer (HCT-116) in nude mice; conditions: HCT-116 subcutaneous in nude mice; oral daily 5 days/week, 3 weeks; ZTP 30 mg/kg, ZTQ 60 mg/kg; lower = stronger
Experimental: as §1, §2, §3, §4

[4] = test system: human liver cancer cells (HepG3B); assay: Transplantation model of human liver cancer (HepG3B) in nude mice; conditions: HepG3B subcutaneous in nude mice; oral daily 5 days/week, 3 weeks; ZTP 30 mg/kg, ZTQ 60 mg/kg; lower = stronger
Experimental: as §1, §2, §3, §4

CNC(=O)c1cc(Oc2ccc(NC(=O)Nc3ccc(Cl)c(C(F)(F)F)c3)cc2)ccn1 [Sorafenib, reference compound]
TGI (T/C×100) [1]: 11.25% | side effect, including the change in body weight [2]: relatively large side effect | TGI (T/C×100) [3]: 33% | TGI (T/C×100) [4]: 14%

N-[4-chloro-3-(trifluoromethyl)phenyl]-[4-(N-methyl-formamide)(4-pyridyloxy)phenyl]-thiourea [ZTP]
side effect, including the change in body weight [2]: no obvious side effect
